{
  "source": "patent US9217743B2",
  "about": "“Screening method utilizing thalidomide-targeting factor” (Tokyo Institute of Technology, priority 2009, dated 2015)",
  "key": {"CRBN YW/AA (Y384A/W386A)": {"target": "T1, CRBN YW/AA (Y384A/W386A) (Homo sapiens, UniProt Q96SW2, W386A/Y384A)", "T1 construct": "expressed in transfected cells; host or cells: 293T", "T1 sequence (Q96SW2 whole entry Y384A/W386A)": "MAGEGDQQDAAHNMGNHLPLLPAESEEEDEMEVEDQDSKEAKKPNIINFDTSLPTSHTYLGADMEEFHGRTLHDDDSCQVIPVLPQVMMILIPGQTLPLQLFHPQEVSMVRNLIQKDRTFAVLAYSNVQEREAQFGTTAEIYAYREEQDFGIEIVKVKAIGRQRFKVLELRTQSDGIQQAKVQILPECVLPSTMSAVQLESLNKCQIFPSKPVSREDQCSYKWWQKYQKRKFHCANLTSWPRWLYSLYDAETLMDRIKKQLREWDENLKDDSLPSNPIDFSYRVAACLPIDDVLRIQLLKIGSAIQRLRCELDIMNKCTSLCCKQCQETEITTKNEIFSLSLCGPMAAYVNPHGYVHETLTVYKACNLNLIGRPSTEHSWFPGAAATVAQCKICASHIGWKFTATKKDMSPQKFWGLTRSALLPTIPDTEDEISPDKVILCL", "experiment": "Binding of CRBN double mutant from 293T extracts to thalidomide-immobilized beads", "source_text": "(§1) First, thalidomide-binding region was investigated by using the N-terminal and C-terminal deletion mutants. […] The present inventors investigated whether this CRBN YW/AA functionally active in the cells. The subcellular localization of this mutant was indistinguishable from that of wild-type CRBN.\n(§2) Recombinant CRBN-FLAG and DDB1-V5-His proteins were expressed in the insect Sf9 cells by using the Bac-to-bac baculovirus expression system (Invitrogen) and purified using anti-FLAG M2 agarose beads (Sigma) and Ni-NTA agarose beads (Qiagen), respectively. Purified CRBN-FLAG and/or DDB1-V5-His were mixed with thalidomide-immobilized beads, and the bound proteins were eluted with an SDS sample buffer. For analysis of CRBN-deletion mutant, GST-fused CRBN and its mutants were expressed in E. coli BL21 and purified using glutathione Sepharose (GE Healthcare). CRBN mutants were overexpressed in 293T cells by transfection using Lipofectamine 2000 (Invitrogen). Subsequent binding assays were carried out as described above."}, "zCrbn YW/AA": {"target": "T2, zCrbn YW/AA (Danio rerio, UniProt Q68EH9, W376A/Y374A)", "T2 construct": "expressed in transfected cells; host or cells: 293T", "T2 sequence (Q68EH9 1-431 Y374A/W376A)": "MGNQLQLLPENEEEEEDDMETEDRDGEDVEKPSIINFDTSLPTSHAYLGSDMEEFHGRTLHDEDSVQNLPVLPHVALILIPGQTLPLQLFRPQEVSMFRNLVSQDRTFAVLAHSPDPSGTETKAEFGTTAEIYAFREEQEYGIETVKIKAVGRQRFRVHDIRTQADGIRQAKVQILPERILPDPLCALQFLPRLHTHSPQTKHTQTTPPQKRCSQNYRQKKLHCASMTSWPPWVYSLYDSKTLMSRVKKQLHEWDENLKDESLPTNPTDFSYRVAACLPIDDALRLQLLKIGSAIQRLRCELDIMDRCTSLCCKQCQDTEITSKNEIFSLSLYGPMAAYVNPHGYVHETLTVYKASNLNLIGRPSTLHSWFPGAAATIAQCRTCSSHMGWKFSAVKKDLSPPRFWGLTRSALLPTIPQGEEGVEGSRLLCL", "experiment": "Binding of FLAG-zCrbn YW/AA from 293T lysate to thalidomide beads", "design": "species or system zebrafish", "conditions": "FLAG-zCrbn YW/AA in 293T lysate", "experimental": "(§3) FIG. 14 relates to biochemical analysis results of zCrbn. […] Bound proteins were eluted by thalidomide, and eluate were analyzed by western blotting. zCrbn bound to thalidomide. (B) Lysate from 293T cells overexpressing FH-zCrbn was immunoprecipitated with anti-FLAG antibody, and DDB1 was detected by western blotting. […] (C) Lysate from FLAG-zCrbn (wild type) or FLAG-zCrbn YW/AA overexpressed in 293T cells was mixed with thalidomide beads. For quantification, various amounts of input and eluate fraction were analyzed by western blotting.\nIf so, its teratogenicity should be alleviated by expression of functionally active but thalidomide-binding-defective zCrbn. To examine this idea, the present inventors prepared mutants in which Y374 and W376 are substituted with alanine (corresponding to YW/AA in humans, namely Y384A/W386A). The zCrbn YW/AA has extremely low thalidomide-binding activity. In the absence of thalidomide, Overexpression of wild-type zCrbn or zCrbn YW/AA had no discernible effect on fin and otic vesicle development. […] Also thalidomide treatment of embryos overexpressing wild-type zCrbn reduced the size of otic vesicles to approximately 66% of the control size. […] Thalidomide-induced fin degeneration was also rescued by overexpression of zCrbn YW/AA."}, "zCrbn": {"target": "T3, zCrbn (Danio rerio, UniProt Q68EH9, D160E)", "T3 construct": "expressed in transfected cells; host or cells: 293T (stably expressing FH-zCrbn)", "T3 sequence (Q68EH9 1-431 D160E)": "T2 sequence (Q68EH9 1-431 Y374A/W376A) with D160E, A374Y, A376W", "experiment": "Binding of FH-zCrbn from 293T extracts to thalidomide beads", "design": "species or system zebrafish", "conditions": "FH-zCrbn in 293T extract", "experimental": "as §3"}, "CRBN": {"target": "CRBN (Homo sapiens, UniProt Q96SW2)", "sequence (Q96SW2 whole entry)": "as the sequence (Q96SW2 whole entry Y384A/W386A) above, with A384Y, A386W counted along it", "experiment": "Elution of CRBN from thalidomide-immobilized beads by test compound, Western blotting", "description": "Firstly, thalidomide-immobilized FG beads are prepared. The immobilized beads are mixed and incubated with extracts of CRBN-expressing cells or recombinant proteins for one hour or longer in a rotator at 5 rpm and 4° C. Then, after the beads are washed with a buffer, for example, a buffer containing a thalidomide derivative as a test substance is passed through the beads to see whether CRBN is eluted. Examples of a detection method include Western blotting, dot blotting, CBB staining, and silver staining."}, "fgf8a": {"system": "fgf8a", "experiment": "Whole-mount in situ hybridization of zebrafish fin buds", "format": "in vivo", "source_text": "(§4) To obtain a clue to the pathway(s) downstream of CRBN and thalidomide, the present inventors analyzed well-known key molecules in fin development. Sonic hedgehog (Shh) is expressed in the zone of polarizing activity (ZPA) and is responsible for anteroposterior patterning of the limb and fin (Cited Literature 27), whereas Fgf8 is expressed in the apical ectodermal ridge (AER) of the limb and fin and is necessary for outgrowth of the limb and fin along the proximodistal axis. […] Thus, an inhibitor of FGF8 production is a possible downstream target of thalidomide and the CRBN-containing E3 complex.\n(§5) This assay was carried out in accordance with Cited Literature 41. Antisense probe for zcrbn mRNA was directed against the 5′-coding region of 513 bp. Antisense probe for zcul4a was directed against the 3′ untranslated region (3′ UTR) of 590 bp. Probes for shh and fgf8 were kindly provided by Dr. Krauss and Dr. Thisse, respectively. To increase permeability of probes, fixed embryos were incubated with PBS containing 0.1% Tween-20 and […] proteinase K for two minutes at room temperature."}, "shh": {"system": "shh", "experiment": "Whole-mount in situ hybridization of zebrafish fin buds", "format": "in vivo", "conditions": "thalidomide-treated 48-hpf embryos", "source_text": "as §4, §5"}, "CRBN W386A": {"target": "T4, CRBN W386A (Homo sapiens, UniProt Q96SW2, W386A)", "T4 construct": "expressed in transfected cells; host or cells: 293T", "T4 sequence (Q96SW2 whole entry W386A)": "as the sequence (Q96SW2 whole entry Y384A/W386A) above, with A384Y counted along it", "experiment": "Binding of CRBN point mutant from 293T extracts to thalidomide-immobilized beads", "source_text": "as §1, §2"}, "CRBN Y384A": {"target": "T5, CRBN Y384A (Homo sapiens, UniProt Q96SW2, Y384A)", "T5 construct": "expressed in transfected cells; host or cells: 293T", "T5 sequence (Q96SW2 whole entry Y384A)": "as the sequence (Q96SW2 whole entry Y384A/W386A) above, with A386W counted along it", "experiment": "Binding of CRBN point mutant from 293T extracts to thalidomide-immobilized beads", "source_text": "as §1, §2"}},
  "note": "Numbering of substitutions follows the chain as printed. Entries after “also recorded” stand apart in the source; their conditions may differ.",
  "data": [
    {"smiles": "O=C1CCC(N2C(=O)c3ccccc3C2=O)C(=O)N1", "note": "(stereo not shown) [thalidomide]", "values": [
      {"measurement": "thalidomide-binding activity of CRBN YW/AA", "setting": "CRBN YW/AA (Y384A/W386A)", "result": "extremely low"},
      {"measurement": "thalidomide-binding activity of zCrbn YW/AA", "setting": "zCrbn YW/AA", "result": "extremely low; also recorded: obviously weak"},
      {"measurement": "binding of zCrbn to thalidomide", "setting": "zCrbn", "result": "bound"},
      {"measurement": "CRBN eluted from thalidomide-immobilized beads by the compound", "setting": "CRBN; 293T cell extracts, buffer containing 0.1 to 1 mM compound, one hour, Western blotting", "result": "eluted"},
      {"measurement": "CRBN in the eluate fraction", "setting": "CRBN; Example 6, 293T extracts, elution with 1 mM compound", "result": "detected"},
      {"measurement": "fgf8a expression", "setting": "fgf8a; thalidomide-treated 48-hpf embryos", "result": "reduced or absent; also recorded: severely reduced"},
      {"measurement": "fgf8a expression", "setting": "fgf8a; thalidomide-treated embryos injected with zCrbn YW/AA", "result": "restored"},
      {"measurement": "shh expression", "setting": "shh", "result": "no change"},
      {"measurement": "thalidomide binding of CRBN W386A", "setting": "CRBN W386A", "result": "defective"},
      {"measurement": "thalidomide binding of CRBN Y384A", "setting": "CRBN Y384A", "result": "defective"}
    ]}
  ]
}
